From patent US5340822A, “Polycyclic amine compounds and their enantiomers, their method of preparation and pharmaceutical compositions in which they are present” (Elf Sanofi, priority 1991, dated 1994)
Where a name gives a salt, the structure may show the parent alone.

Columns and labels:
binding of substance P = assay: antagonism of the binding of substance P on rat cortical membranes and IM9 lymphoblasts; conditions: rat cortical membranes and/or IM9 lymphoblasts (not said which); read-out: Ki, antagonizes the binding of substance P
binding of eledoisin = target: T1, binding of eledoisin (Rattus norvegicus, UniProt P16177); assay: antagonism of the binding of eledoisin on rat membranes; conditions: read-out: Ki, antagonizes the binding of eledoisin
T1 construct: tests performed on rat membranes; from tissue
T1 sequence (P16177 1-452): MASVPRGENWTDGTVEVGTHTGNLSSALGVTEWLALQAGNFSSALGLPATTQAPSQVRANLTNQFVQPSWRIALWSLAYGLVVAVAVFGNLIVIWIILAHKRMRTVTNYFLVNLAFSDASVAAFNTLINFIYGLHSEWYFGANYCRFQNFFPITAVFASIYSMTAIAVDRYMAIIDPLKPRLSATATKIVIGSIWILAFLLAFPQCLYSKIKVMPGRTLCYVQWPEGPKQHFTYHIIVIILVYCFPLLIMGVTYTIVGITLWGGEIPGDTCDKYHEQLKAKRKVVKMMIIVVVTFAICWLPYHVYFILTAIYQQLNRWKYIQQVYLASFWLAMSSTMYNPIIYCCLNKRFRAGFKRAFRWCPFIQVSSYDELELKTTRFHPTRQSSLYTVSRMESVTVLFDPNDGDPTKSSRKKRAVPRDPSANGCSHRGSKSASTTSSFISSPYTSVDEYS
Description: Foster et al., Br. J. Pharmacol., 1988, 94, 602-608.
Eledoisin is a peptide of batrachian origin which is equivalent to neurokinin B.

[1] = target: T2, binding of neurokinin A (NKA) (Rattus norvegicus, UniProt P16610); assay: antagonism of the binding of NKA on rat duodenal membranes; conditions: read-out: Ki, antagonizes the binding of neurokinin A
T2 construct: tests performed on rat duodenal membranes; from tissue; host or cells: rat duodenal membranes
T2 sequence (P16610 1-390): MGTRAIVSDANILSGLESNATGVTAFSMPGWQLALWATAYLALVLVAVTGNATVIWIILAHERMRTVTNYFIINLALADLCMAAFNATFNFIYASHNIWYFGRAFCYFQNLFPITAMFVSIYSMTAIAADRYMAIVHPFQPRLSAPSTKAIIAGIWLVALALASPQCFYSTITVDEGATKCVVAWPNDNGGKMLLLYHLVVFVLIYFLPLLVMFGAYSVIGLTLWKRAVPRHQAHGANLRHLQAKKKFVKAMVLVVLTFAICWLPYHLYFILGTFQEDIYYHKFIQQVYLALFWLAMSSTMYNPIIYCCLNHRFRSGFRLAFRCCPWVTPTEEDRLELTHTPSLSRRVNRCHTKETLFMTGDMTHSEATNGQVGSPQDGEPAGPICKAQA

NK1 receptor = conditions: D. Regoli, 1988 and 1989; cited from earlier work

With `O=C(Cc1ccccc1)N1CCCC(CCN2CCC(Cc3ccccc3)CC2)(c2ccc(Cl)c(Cl)c2)C1` (stereo not shown) [Compound 2, 3-[2-(4-Benzylpiperidin-1-yl)ethyl]-3-(3,4-dichlorophenyl)-1-phenylacetylpiperidine hydrochloride] as the compound, how does the Ki (binding of substance P) read?
Its Ki is 8.3 nM.

With `O=C1CCC(CCN2CCC(O)(c3ccccc3)CC2)(c2ccc(Cl)c(Cl)c2)CN1Cc1ccccc1` (stereo not shown) [Compound 3] as the compound, how does the Ki (binding of eledoisin) read?
The Ki was 200 nM.

Which Ki [1] does the source give for `O=C(c1ccccc1)N1CCC(CCN2CCC(O)(c3ccccc3)CC2)(c2ccc(Cl)c(Cl)c2)C1` (stereo not shown) [Compound 7] here?
Its Ki is 1.3 nM.

For [Sar^9,Met-(O2)^11 ]SP, which “selectivity for the NK1 receptor” value (NK1 receptor) is on record?
The value was “thought to have a selectivity for the NK1”.
